Test results reported in patent US12077503B2, “Substituted cyclic amides and their use as herbicides” (FMC CORPORATION, priority 2015, dated 2024).

How the values were obtained:
Type in all cases: in vivo
[1] = test system: ragweed (common ragweed, Ambrosia elatior); assay: Test A preemergence; settings: Ambrosia artemisiifolia, pre-emergence, 240 h, 0 to 100 scale where 0 is no effect and 100 is complete control, read-out: Ragweed plant response rating
In short: (§1)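 Visual injury, scored on a 0–100 scale relative to untreated controls, was recorded about 10 d after application. Treatments were a preemergence soil spray over planted seeds or a postemergence spray on plants at the one- to two-leaf stage, 2 to 10 cm tall, all in loam soil–sand blend in the greenhouse.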

[2] = test system: barnyardgrass (Echinochloa crus-galli); assay: Test A preemergence; settings: Echinochloa crus-galli, pre-emergence, 240 h, Preemergence
In short: as §1

[3] = test system: pigweed (Amaranthus retroflexus); assay: Test A preemergence; settings: Amaranthus retroflexus, pre-emergence, 240 h, 0 to 100 scale where 0 is no effect and 100 is complete control, read-out: Pigweed plant response rating
[4] = test system: giant foxtail (Setaria faberii); assay: Test A preemergence; settings: Setaria faberi, pre-emergence, 240 h, Preemergence
In short: as §1

Kochia (Kochia scoparia) [5] = assay: Test A preemergence; settings: Bassia scoparia, pre-emergence, 240 h, 0 to 100 scale where 0 is no effect and 100 is complete control, read-out: Kochia plant response rating
In short: as §1

[6] = test system: ryegrass, Italian (Italian ryegrass, Lolium multiflorum); assay: Test A preemergence; settings: Lolium multiflorum, pre-emergence, 240 h, 0 to 100 scale where 0 is no effect and 100 is complete control, read-out: Ryegrass, Italian plant response rating
In short: as §1

[7] = test system: sedge, umbrella (small-flower umbrella sedge, Cyperus difformis); assay: Test B flooded paddy test; settings: Cyperus difformis, 250 g ai/ha, Flood; 0 to 100 scale where 0 is no effect and 100 is complete control; read-out: Sedge, Umbrella plant response rating
In short: (§2)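 Rating scale 0–100 (visual, vs untreated controls) after a 13–15 d greenhouse period; application to the flood layer, 3 cm above soil and maintained; plants at 2-leaf stage when treated.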

[8] = test system: ducksalad (Heteranthera limosa); assay: Test B flooded paddy test; settings: Heteranthera limosa, 250 g ai/ha, Flood; 0 to 100 scale where 0 is no effect and 100 is complete control; read-out: Ducksalad plant response rating
In short: as §2

[9] = test system: barnyardgrass (Echinochloa crus-galli); assay: Test B flooded paddy test; settings: Echinochloa crus-galli, 250 g ai/ha, Flood; 0 to 100 scale where 0 is no effect and 100 is complete control; read-out: Barnyardgrass plant response rating
In short: as §2

rice (Oryra sativa) = assay: Test B flooded paddy test; settings: Oryza sativa, 250 g ai/ha, Flood; 0 to 100 scale where 0 is no effect and 100 is complete control; read-out: Rice plant response rating
In short: as §2

[10] = test system: wheat (Triticum aestivum); assay: Test A postemergence; settings: Triticum aestivum, post-emergence, 240 h
In short: as §1

[11] = test system: ragweed (common ragweed, Ambrosia elatior); assay: Test A postemergence; settings: Ambrosia artemisiifolia, post-emergence, 240 h
In short: as §1

[12] = test system: barnyardgrass (Echinochloa crus-galli); assay: Test A postemergence; settings: Echinochloa crus-galli, post-emergence, 240 h
In short: as §1

[13] = test system: Galium (catchweed bedstraw, Galium aparine); assay: Test A postemergence; settings: Galium, post-emergence, 240 h
In short: as §1

[14] = test system: pigweed (Amaranthus retroflexus); assay: Test A postemergence; settings: Amaranthus retroflexus, post-emergence, 240 h
In short: as §1

[15] = test system: giant foxtail (Setaria faberii); assay: Test A postemergence; settings: Setaria faberi, post-emergence, 240 h
In short: as §1

Kochia (Kochia scoparia) [16] = assay: Test A postemergence; settings: Bassia scoparia, post-emergence, 240 h
In short: as §1

[17] = test system: ryegrass, Italian (Italian ryegrass, Lolium multiflorum); assay: Test A postemergence; settings: Lolium multiflorum, post-emergence, 240 h
In short: as §1

corn (Zea mays) = assay: Test A postemergence; settings: Zea mays, post-emergence, 240 h
In short: as §1

[18] = test system: blackgrass (Alopecurus myosuroides); assay: Test A postemergence; settings: Alopecurus myosuroides, post-emergence, 240 h
In short: as §1

[19] = 125 g ai/ha, preemergence, approx. 10 d

Cc1ccncc1NC(=O)[C@H]1C(=O)N(C)C[C@@H]1c1cccc(C(F)(F)F)c1 [Compound 1069] gave a pest or weed control at 31 g/ha ([1]; 31 g ai/ha, Preemergence) of 0%, a pest or weed control at 125 g/ha [1, 19] of 0% and a pest or weed control at 31 g/ha ([2]; 31 g ai/ha, 0 to 100 scale where 0 is no effect and 100 is complete control, read-out: Barnyardgrass plant response rating) of 0%. For the same molecule, the pest or weed control at 125 g/ha ([2]; 125 g ai/ha, visual injury rating after approximately 10 d, read-out: Barnyardgrass plant response rating (0 to 100 scale, 0 is no effect, 100 is complete control)) was 0%, the pest or weed control at 31 g/ha ([3]; 31 g ai/ha, Preemergence) was 0% and the pest or weed control at 125 g/ha [3, 19] was 0%. The pest or weed control at 31 g/ha ([4]; 31 g ai/ha, 0 to 100 scale where 0 is no effect and 100 is complete control, read-out: Foxtail, Giant plant response rating) was 0%, the pest or weed control at 125 g/ha ([4]; 125 g ai/ha, visual injury rating after approximately 10 d, read-out: Foxtail, Giant plant response rating (0 to 100 scale, 0 is no effect, 100 is complete control)) was 50% and the pest or weed control at 31 g/ha (Kochia (Kochia scoparia) [5]; 31 g ai/ha, Preemergence) was 0%. It also gave a pest or weed control at 125 g/ha (Kochia (Kochia scoparia) [5]; [19]) of 0%, a pest or weed control at 31 g/ha ([6]; 31 g ai/ha, Preemergence) of 0% and a pest or weed control at 125 g/ha [6, 19] of 0%. The pest or weed control at 250 g/ha [7] was 0%, the pest or weed control at 250 g/ha [8] was 35% and the pest or weed control at 250 g/ha [9] was 20%. For the same molecule, the pest or weed control at 250 g/ha (rice (Oryra sativa)) was 0%, the plant injury at 125 g/ha ([10]; 125 g ai/ha, postemergence, visual injury on 0 to 100 scale (0 no effect, 100 complete control), approx. 10 d, read-out: Wheat plant response rating) was 0% and the plant injury at 31 g/ha ([10]; Postemergence, 31 g ai/ha, visual injury after approx. 10 d, 0 to 100 scale, 0 no effect, 100 complete control, read-out: Plant response rating, Wheat) was 0%. The pest or weed control at 125 g/ha ([11]; 125 g ai/ha, postemergence, visual injury on 0 to 100 scale (0 no effect, 100 complete control), approx. 10 d, read-out: Ragweed plant response rating) was 0%, the pest or weed control at 31 g/ha ([11]; Postemergence, 31 g ai/ha, visual injury after approx. 10 d, 0 to 100 scale, 0 no effect, 100 complete control, read-out: Plant response rating, Ragweed) was 0% and the pest or weed control at 125 g/ha ([12]; 125 g ai/ha, postemergence, visual injury on 0 to 100 scale (0 no effect, 100 complete control), approx. 10 d, read-out: Barnyardgrass plant response rating) was 0%. It also gave a pest or weed control at 31 g/ha ([12]; Postemergence, 31 g ai/ha, visual injury after approx. 10 d, 0 to 100 scale, 0 no effect, 100 complete control, read-out: Plant response rating, Barnyardgrass) of 0%, a pest or weed control at 125 g/ha ([13]; 125 g ai/ha, postemergence, visual injury on 0 to 100 scale (0 no effect, 100 complete control), approx. 10 d, read-out: Galium plant response rating) of 0% and a pest or weed control at 31 g/ha ([13]; Postemergence, 31 g ai/ha, visual injury after approx. 10 d, 0 to 100 scale, 0 no effect, 100 complete control, read-out: Plant response rating, Galium) of 0%. The pest or weed control at 125 g/ha ([14]; 125 g ai/ha, postemergence, visual injury on 0 to 100 scale (0 no effect, 100 complete control), approx. 10 d, read-out: Pigweed plant response rating) was 0%, the pest or weed control at 31 g/ha ([14]; Postemergence, 31 g ai/ha, visual injury after approx. 10 d, 0 to 100 scale, 0 no effect, 100 complete control, read-out: Plant response rating, Pigweed) was 0% and the pest or weed control at 125 g/ha ([15]; 125 g ai/ha, postemergence, visual injury on 0 to 100 scale (0 no effect, 100 complete control), approx. 10 d, read-out: Foxtail, Giant plant response rating) was 0%. The pest or weed control at 31 g/ha ([15]; Postemergence, 31 g ai/ha, visual injury after approx. 10 d, 0 to 100 scale, 0 no effect, 100 complete control, read-out: Plant response rating, Foxtail, Giant) was 0%, the pest or weed control at 125 g/ha (Kochia (Kochia scoparia) [16]; 125 g ai/ha, postemergence, visual injury on 0 to 100 scale (0 no effect, 100 complete control), approx. 10 d, read-out: Kochia plant response rating) was 0% and the pest or weed control at 31 g/ha (Kochia (Kochia scoparia) [16]; Postemergence, 31 g ai/ha, visual injury after approx. 10 d, 0 to 100 scale, 0 no effect, 100 complete control, read-out: Plant response rating, Kochia) was 0%. The pest or weed control at 125 g/ha ([17]; 125 g ai/ha, postemergence, visual injury on 0 to 100 scale (0 no effect, 100 complete control), approx. 10 d, read-out: Ryegrass, Italian plant response rating) was 0%, the pest or weed control at 31 g/ha ([17]; Postemergence, 31 g ai/ha, visual injury after approx. 10 d, 0 to 100 scale, 0 no effect, 100 complete control, read-out: Plant response rating, Ryegrass, Italian) was 0% and the plant injury at 125 g/ha (corn (Zea mays); 125 g ai/ha, postemergence, visual injury on 0 to 100 scale (0 no effect, 100 complete control), approx. 10 d, read-out: Corn plant response rating) was 0%. It also gave a Corn plant response rating (crop injury, 0 = no effect, 100 = complete kill) at 31 g/ha (corn (Zea mays); Postemergence, 31 g ai/ha, visual injury after approx. 10 d, 0 to 100 scale, 0 no effect, 100 complete control) of 0%, a pest or weed control at 125 g/ha ([18]; 125 g ai/ha, postemergence, visual injury on 0 to 100 scale (0 no effect, 100 complete control), approx. 10 d, read-out: Blackgrass plant response rating) of 0% and a pest or weed control at 31 g/ha ([18]; Postemergence, 31 g ai/ha, visual injury after approx. 10 d, 0 to 100 scale, 0 no effect, 100 complete control, read-out: Plant response rating, Blackgrass) of 0%.
